Source: PubChem BioAssay AID1259411 (Chemical Carcinogenesis Research Information System (CCRIS), 2018)
Activity calls are given as the source filed them. No rule for the calls is given here.

Tested on: rodent carcinogenicity bioassays, tumor incidence
Assay: CCRIS carcinogenicity studies
Settings: Dose: 0, Dose: 0
Outline: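 Archive of carcinogenicity, mutagenicity, tumor promotion and tumor inhibition results drawn from journals, NCI reports and other sources, expert-reviewed; covers 1985-2011 and is no longer updated.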

Structure (SMILES): CC[C@H]1OC(=O)[C@H](C)[C@@H](O[C@H]2C[C@@](C)(OC)[C@@H](O)[C@H](C)O2)[C@H](C)[C@@H](O[C@@H]2O[C@H](C)C[C@H](N(C)C)[C@H]2O)[C@](C)(O)C[C@@H](C)C(=O)[C@H](C)[C@@H](O)[C@]1(C)O
- carcinogen call (Species: MOUSE, Strain/Sex: B6C3F1/FEMALE, Route: ORAL, 2500, 5000 PPM IN FEED FOR 103 WK (STUDY DURATION: 104 WK), 2500, 5000 PPM IN FEED FOR 103 WK (STUDY DURATION: 104 WK)): inactive; negative
- carcinogen call (Species: MOUSE, Strain/Sex: B6C3F1/MALE, Route: ORAL, 2500, 5000 PPM IN FEED FOR 103 WK (STUDY DURATION: 104 WK), 2500, 5000 PPM IN FEED FOR 103 WK (STUDY DURATION: 104 WK)): inactive; negative
- carcinogen call (Species: RAT, Strain/Sex: F344/FEMALE, Route: ORAL, 5000, 10000 PPM IN FEED FOR 103 WK (STUDY DURATION: 104 WK), 5000, 10000 PPM IN FEED FOR 103 WK (STUDY DURATION: 104 WK)): inactive; negative
- carcinogen call (Species: RAT, Strain/Sex: F344/MALE, Route: ORAL, 5000, 10000 PPM IN FEED FOR 103 WK (STUDY DURATION: 104 WK), 5000, 10000 PPM IN FEED FOR 103 WK (STUDY DURATION: 104 WK)): inactive; negative

Structure (SMILES): Nc1cnn([C@@H]2O[C@H](CO)[C@@H](O)[C@H]2O)c(=O)n1
- carcinogen call (Species: RAT, Strain/Sex: F344/MALE, Route: INTRAPERITONEAL, 2.5 MG/KG IN 0.9% SALINE 3/WK FOR 1 YR (STUDY DURATION: 1 YR)): inactive; negative
